Converted amounts (≈) assume the structure as drawn. The source made the active and inactive calls. The rule behind the calls is not given here.
How the values were obtained:
[1] = tested on: Mycobacterium tuberculosis; experiment: Bactericidal activity against Mycobacterium tuberculosis H37Rv assessed as reduction in CFU grown under middlebrook 7H9/OADC-Glycerol-Tween80 medium at 1 to 2 times MIC incubated for 7 days; format: functional; conditions: time 7 day
[2] = tested on: Mycobacterium tuberculosis; experiment: Antimycobacterial activity against mmpL3 gene silenced Mycobacterium tuberculosis H37Rv assessed as inhibition of bacterial growth grown under middlebrook 7H9 medium incubated for 7 days by alamar blue broth microdilution method; format: functional, organism-based; conditions: time 7.0 day
Vero = experiment: Cytotoxicity against African green monkey Vero cells assessed as reduction in cell viability by MTT assay; format: cell-based; conditions: Chlorocebus sabaeus
[3] = tested on: Mycobacterium tuberculosis; experiment: Antimycobacterial activity against wild-type Mycobacterium tuberculosis H37Rv assessed as inhibition of bacterial growth grown under middlebrook 7H9 medium incubated for 7 days by alamar blue broth microdilution method; format: functional; conditions: 168 h, time 7 day
[4] = Aqueous solubility of compound at pH 7.4; format: physicochemical
[5] = tested on: Mycobacterium tuberculosis; format: functional; conditions: H37Rv, 168 h, time 7 day
CHO = experiment: Cytotoxicity against CHO cells assessed as reduction in cell viability by MTT assay; format: cell-based; conditions: Cricetulus griseus
[6] = Protein binding in human plasma assessed as unbound fraction at 5 uM incubated for 1 hr at 37 degreeC and measured after 4 hrs by ultracentrifugation based LC-MS/MS analysis; format: ADME, cell-free; conditions: 5 h
[7] = Kinetic solubility of compound at 200 uM at pH 7.4 measured after 20 hrs by HPLC-DAD analysis; format: physicochemical; conditions: buffer, pH 7.4, 20 h

SMILES	solubility ([4]; buffer) [µM]	MIC [5] [µM]	IC50 (CHO) [µM]	solubility ([4]; aqueous, read-out: solubility) [µM]	other results
CO[C@H]1/C=C/O[C@@]2(C)Oc3c(C)c(O)c4c(O)c(c(/C=N/N5CCN(C)CC5)c(O)c4c3C2=O)NC(=O)/C(C)=C\C=C\[C@H](C)[C@H](O)[C@@H](C)[C@@H](O)[C@@H](C)[C@H](OC(C)=O)[C@@H]1C [RIFAMPIN]					Activity [1]: 2 log10CFU
CC(=O)Nc1cc(C)nn1-c1nc(-c2ccccc2)cc(=O)[nH]1	150 (≈ 46.4 µg/mL)	6 (≈ 1.86 µg/mL)			Activity [2]: Active; IC50 (Vero): 35 µM; MIC [3]: 27 µM (≈ 8.35 µg/mL)
Cc1cc(C)n(-c2nc(-c3ccncc3)cc(=O)[nH]2)n1	180 (≈ 48.1 µg/mL)	9 (≈ 2.41 µg/mL)	> 50		
CCNc1cc(C)nn1-c1nc(C(F)(F)F)cc(=O)[nH]1	85 (≈ 24.4 µg/mL)	6.25 (≈ 1.8 µg/mL)	8		
Cc1nn(-c2nc(C(F)(F)F)cc(=O)[nH]2)c(C)c1Br		25 (≈ 8.43 µg/mL)	> 50	200 (≈ 67.4 µg/mL)	
Cc1cc(C)n(-c2nc(-c3ccccc3)cc(=O)n2C)n1		> 50		200 (≈ 56.1 µg/mL)	IC50 (Vero): 357 µM
COc1cc(-c2ccccc2)nc(-n2nc(C)cc2C)n1		> 50	> 50	200 (≈ 56.1 µg/mL)	
Cc1cc(C)n(-c2nc(-c3ccc(N4CCOCC4)cc3)cc(=O)[nH]2)n1	40 (≈ 14.1 µg/mL)	> 125			
Cc1cc(C)n(-c2cc(=O)cc(-c3ccccc3)[nH]2)n1	120 (≈ 31.8 µg/mL)	> 50	> 50		
Nc1cc(C2CC2)nn1-c1nc(C(F)(F)F)cc(=O)[nH]1	10 (≈ 2.85 µg/mL)	25 (≈ 7.13 µg/mL)	24		
Cc1nn(-c2nc(C(F)(F)F)cc(=O)[nH]2)c(C)c1N1CCOCC1	160 (≈ 54.9 µg/mL)	6.25 (≈ 2.15 µg/mL)	> 50		Fu [6]: 0.03; Kinetic_solubility [7]: 160 µM
Cc1cc(C)n(-c2nc(-c3ccc(F)cc3)c(C(=O)O)c(=O)[nH]2)n1	190 (≈ 62.4 µg/mL)	> 50	> 50		
Cc1cc(C)n(-c2nc(-c3ccc(S(C)(=O)=O)cc3)cc(=O)[nH]2)n1	8 (≈ 2.76 µg/mL)	> 50	> 50		
Cc1cc(NCCN(C)C)n(-c2nc(C(F)(F)F)cc(=O)[nH]2)n1		58 (≈ 19.2 µg/mL)		200 (≈ 66.1 µg/mL)	
Cc1cc(C)n(-c2nc(C(=O)Nc3ccc(F)cc3)cc(=O)[nH]2)n1		25 (≈ 8.18 µg/mL)	> 50	200 (≈ 65.5 µg/mL)	
COCCNc1cc(C)nn1-c1nc(C(F)(F)F)cc(=O)[nH]1		2 (≈ 0.635 µg/mL)	17	200 (≈ 63.5 µg/mL)	Activity [2]: Active; MIC [3]: 1.2 µM (≈ 0.381 µg/mL)
Cc1cc(C)n(-c2nc(-c3ccc(F)cc3)c(C#N)c(=O)[nH]2)n1	30 (≈ 9.28 µg/mL)	> 50	> 50		
Cc1cc(Nc2ccc(C(=O)N(C)C)cc2)n(-c2nc(C(F)(F)F)cc(=O)[nH]2)n1		> 50		200 (≈ 81.3 µg/mL)	
Cc1cc(O)nc(-n2nc(C)cc2C)n1	180 (≈ 36.8 µg/mL)	30 (≈ 6.13 µg/mL)			IC50 (Vero): 325 µM
Cc1cc(NCCO)n(-c2nc(C(F)(F)F)cc(=O)[nH]2)n1		37 (≈ 11.2 µg/mL)		200 (≈ 60.6 µg/mL)	
Cc1cc(C)n(-c2cc(-c3ccccc3)cc(=O)n2C)n1		> 50	> 50	185 (≈ 51.7 µg/mL)	
Cn1ccnc1-c1nc(-c2ccccc2)cc(=O)[nH]1		20 (≈ 5.05 µg/mL)	4	200 (≈ 50.5 µg/mL)	
CCOc1cc(C)nn1-c1nc(C(F)(F)F)cc(=O)[nH]1	120 (≈ 34.6 µg/mL)	25 (≈ 7.21 µg/mL)	> 50		
Cc1cc(Nc2ccc(C#N)cc2)n(-c2nc(C(F)(F)F)cc(=O)[nH]2)n1	75 (≈ 27 µg/mL)	9.4 (≈ 3.39 µg/mL)	20		
Cc1cc(C2CC2)n(-c2nc(C(F)(F)F)cc(=O)[nH]2)n1	160 (≈ 45.5 µg/mL)	12 (≈ 3.41 µg/mL)	78		
